The target in series [1] is T1, Receptor tyrosine-protein kinase erbB-2 (Homo sapiens, UniProt P04626). Briefly: Inhibition of HER2 (unknown origin).
Series [2] has as its target T2, Epidermal growth factor receptor (Homo sapiens, UniProt P00533).
Description: Inhibition of EGFR (unknown origin)
The subject of series [3] is BT-474. Briefly: Antiproliferative activity against human BT-474 cells. It is filed as functional, cell-based.
The target in series [4] is T1, Receptor tyrosine-protein kinase erbB-2. Briefly: Inhibition of flag-tagged HER2 (unknown origin) extracted from Escherichia coli.
Series [5] in a line: Half life in human. The class given is ADME.
Series [6] deals with T1, Receptor tyrosine-protein kinase erbB-2. In words: Inhibition of human wild type HER2 using PolyEY as substrate pre-incubated for 30 mins followed by substrate addition and measured for 60 mins by spectrophotometric analysis.
Series [7] concerns BaF3. In words: Antiproliferative activity against mouse BaF3 cells harboring HER2 YVMA mutant measured for 24 hrs by CellTiter-Glo assay. The class given is functional, cell-based. The settings on record: BaF3, 24 h. In general terms: In ATP-based viability assays light output follows the ATP content of the culture.
In series [8] the target is T2, Epidermal growth factor receptor. In words: Inhibition of human wild type EGFR using PolyEY as substrate pre-incubated for 30 mins followed by substrate addition and measured for 60 mins by spectrophotometric analysis.
In series [9] the test system is SK-BR-3. In words: Antiproliferative activity against human SK-BR-3 cells assessed as reduction in cell growth incubated for 72 hrs by MTT assay. It is filed as functional, cell-based. As to conditions: SK-BR-3, 72 h. A general note: Formazan colour is commonly taken as a measure of viable cells.
The target of series [10] is T1, Receptor tyrosine-protein kinase erbB-2. Briefly: Inhibition of wild-type HER2 phosphorylation in human BT-474 cells. It is filed as cell-based.
The nature of series [11]: Clearance in rat. It is filed as ADME. As to conditions: in vivo.
A short description of series [12]: Antiproliferative activity against human NCI-H1975 cells harboring EGFR L858R mutant assessed as reduction in cell viability measured after 72 hrs by MTT assay. The settings on record: NCI-H1975, 72 h. The class given is functional, cell-based.
Series [13] relates to NCI-N87. In words: Antiproliferative activity against human NCI-N87 cells. The class given is functional, cell-based.
The nature of series [14]: Metabolic stability in human liver microsomes assessed as half life incubated for 60 mins by LC-MS/MS analysis. It is filed as ADME, Microsome. (Liver microsomes are vesicles of endoplasmic reticulum, rich in cytochrome P450 enzymes.)
The test system of series [15] is NCI-N87. In words: Antiproliferative activity against human NCI-N87 cells assessed as cell growth measured for 48 hrs by MTT assay. The class given is functional, cell-based. As to conditions: NCI-N87, 48 h.
The test system of series [16] is BT-474. Briefly: Antiproliferative activity against human BT-474 cells assessed as reduction in cell growth. The class given is functional, cell-based.
A short description of series [17]: Metabolic stability in human liver microsomes assessed as half life. The class given is ADME, Microsome.
Series [18] deals with Receptor tyrosine-protein kinase erbB-2 (Homo sapiens, UniProt P04626, D769H). Briefly: Inhibition of HER2 D769H mutant (unknown origin).
Series [19] addresses Receptor tyrosine-protein kinase erbB-2 (Homo sapiens, UniProt P04626, D769Y). Briefly: Inhibition of HER2 D769Y mutant (unknown origin).

Molecules are shown by their SMILES.

T2 sequence (P00533 whole entry): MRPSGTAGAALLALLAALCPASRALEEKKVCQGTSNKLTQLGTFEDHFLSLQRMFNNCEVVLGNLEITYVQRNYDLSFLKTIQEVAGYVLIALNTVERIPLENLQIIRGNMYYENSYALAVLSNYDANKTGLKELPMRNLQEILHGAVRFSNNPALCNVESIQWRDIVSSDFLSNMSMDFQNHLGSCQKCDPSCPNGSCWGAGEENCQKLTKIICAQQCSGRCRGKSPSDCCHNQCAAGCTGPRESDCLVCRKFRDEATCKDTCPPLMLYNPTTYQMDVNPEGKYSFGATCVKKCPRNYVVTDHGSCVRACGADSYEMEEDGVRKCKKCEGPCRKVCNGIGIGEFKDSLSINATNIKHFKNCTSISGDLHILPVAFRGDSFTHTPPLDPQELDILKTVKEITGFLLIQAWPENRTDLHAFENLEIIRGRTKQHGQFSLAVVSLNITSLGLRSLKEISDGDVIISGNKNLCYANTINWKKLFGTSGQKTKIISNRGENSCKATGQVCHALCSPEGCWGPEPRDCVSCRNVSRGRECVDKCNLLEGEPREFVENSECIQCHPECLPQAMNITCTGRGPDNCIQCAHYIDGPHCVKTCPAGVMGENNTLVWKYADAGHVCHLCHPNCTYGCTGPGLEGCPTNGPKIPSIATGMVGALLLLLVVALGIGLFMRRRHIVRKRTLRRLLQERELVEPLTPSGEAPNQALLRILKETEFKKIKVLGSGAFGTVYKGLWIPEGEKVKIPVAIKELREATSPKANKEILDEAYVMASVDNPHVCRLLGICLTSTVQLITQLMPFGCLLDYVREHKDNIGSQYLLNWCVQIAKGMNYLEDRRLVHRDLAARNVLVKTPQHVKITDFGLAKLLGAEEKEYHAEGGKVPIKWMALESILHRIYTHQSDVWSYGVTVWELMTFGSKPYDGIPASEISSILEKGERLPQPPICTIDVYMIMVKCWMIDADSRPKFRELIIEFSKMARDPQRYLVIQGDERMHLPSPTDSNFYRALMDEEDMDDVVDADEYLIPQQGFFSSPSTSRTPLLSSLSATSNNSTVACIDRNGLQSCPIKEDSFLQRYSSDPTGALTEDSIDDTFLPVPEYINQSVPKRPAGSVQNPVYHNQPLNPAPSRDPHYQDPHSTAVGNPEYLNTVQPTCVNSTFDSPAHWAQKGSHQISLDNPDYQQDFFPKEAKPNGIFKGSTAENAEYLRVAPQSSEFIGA
T1 sequence (P04626 whole entry): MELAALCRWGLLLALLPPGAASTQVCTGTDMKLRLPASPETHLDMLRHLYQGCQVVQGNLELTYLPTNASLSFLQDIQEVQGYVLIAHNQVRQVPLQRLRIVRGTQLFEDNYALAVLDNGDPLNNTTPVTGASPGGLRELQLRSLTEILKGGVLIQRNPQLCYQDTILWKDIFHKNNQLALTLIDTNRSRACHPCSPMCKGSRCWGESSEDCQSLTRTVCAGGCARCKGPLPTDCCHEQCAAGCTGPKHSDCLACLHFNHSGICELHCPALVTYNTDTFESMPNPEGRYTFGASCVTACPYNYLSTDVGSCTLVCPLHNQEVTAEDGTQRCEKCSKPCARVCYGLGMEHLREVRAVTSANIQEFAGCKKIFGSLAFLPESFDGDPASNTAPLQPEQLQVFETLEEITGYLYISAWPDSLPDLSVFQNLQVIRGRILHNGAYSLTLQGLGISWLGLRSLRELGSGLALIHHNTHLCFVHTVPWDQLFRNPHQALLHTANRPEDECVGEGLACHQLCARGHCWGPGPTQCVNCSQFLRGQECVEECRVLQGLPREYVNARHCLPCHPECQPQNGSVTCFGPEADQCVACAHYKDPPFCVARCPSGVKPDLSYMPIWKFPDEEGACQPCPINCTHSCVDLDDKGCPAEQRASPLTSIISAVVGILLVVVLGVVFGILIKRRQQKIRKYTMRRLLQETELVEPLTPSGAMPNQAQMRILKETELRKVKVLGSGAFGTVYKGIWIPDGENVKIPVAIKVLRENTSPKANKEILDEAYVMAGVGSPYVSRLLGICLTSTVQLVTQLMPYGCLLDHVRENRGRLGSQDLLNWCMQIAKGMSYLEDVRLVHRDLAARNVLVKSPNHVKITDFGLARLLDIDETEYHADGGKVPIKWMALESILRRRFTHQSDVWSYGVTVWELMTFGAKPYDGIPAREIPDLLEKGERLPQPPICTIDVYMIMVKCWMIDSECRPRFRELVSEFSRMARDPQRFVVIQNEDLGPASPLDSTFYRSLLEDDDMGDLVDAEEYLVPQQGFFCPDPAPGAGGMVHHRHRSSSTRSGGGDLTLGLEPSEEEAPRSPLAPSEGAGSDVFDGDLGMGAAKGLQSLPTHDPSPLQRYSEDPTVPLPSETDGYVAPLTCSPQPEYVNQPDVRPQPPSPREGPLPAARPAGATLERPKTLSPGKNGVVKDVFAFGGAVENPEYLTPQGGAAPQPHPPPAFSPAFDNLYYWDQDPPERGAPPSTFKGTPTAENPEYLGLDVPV
Chain of Receptor tyrosine-protein kinase erbB-2 (Homo sapiens, UniProt P04626, D769Y) (P04626 23-1255 D769Y limits assumed): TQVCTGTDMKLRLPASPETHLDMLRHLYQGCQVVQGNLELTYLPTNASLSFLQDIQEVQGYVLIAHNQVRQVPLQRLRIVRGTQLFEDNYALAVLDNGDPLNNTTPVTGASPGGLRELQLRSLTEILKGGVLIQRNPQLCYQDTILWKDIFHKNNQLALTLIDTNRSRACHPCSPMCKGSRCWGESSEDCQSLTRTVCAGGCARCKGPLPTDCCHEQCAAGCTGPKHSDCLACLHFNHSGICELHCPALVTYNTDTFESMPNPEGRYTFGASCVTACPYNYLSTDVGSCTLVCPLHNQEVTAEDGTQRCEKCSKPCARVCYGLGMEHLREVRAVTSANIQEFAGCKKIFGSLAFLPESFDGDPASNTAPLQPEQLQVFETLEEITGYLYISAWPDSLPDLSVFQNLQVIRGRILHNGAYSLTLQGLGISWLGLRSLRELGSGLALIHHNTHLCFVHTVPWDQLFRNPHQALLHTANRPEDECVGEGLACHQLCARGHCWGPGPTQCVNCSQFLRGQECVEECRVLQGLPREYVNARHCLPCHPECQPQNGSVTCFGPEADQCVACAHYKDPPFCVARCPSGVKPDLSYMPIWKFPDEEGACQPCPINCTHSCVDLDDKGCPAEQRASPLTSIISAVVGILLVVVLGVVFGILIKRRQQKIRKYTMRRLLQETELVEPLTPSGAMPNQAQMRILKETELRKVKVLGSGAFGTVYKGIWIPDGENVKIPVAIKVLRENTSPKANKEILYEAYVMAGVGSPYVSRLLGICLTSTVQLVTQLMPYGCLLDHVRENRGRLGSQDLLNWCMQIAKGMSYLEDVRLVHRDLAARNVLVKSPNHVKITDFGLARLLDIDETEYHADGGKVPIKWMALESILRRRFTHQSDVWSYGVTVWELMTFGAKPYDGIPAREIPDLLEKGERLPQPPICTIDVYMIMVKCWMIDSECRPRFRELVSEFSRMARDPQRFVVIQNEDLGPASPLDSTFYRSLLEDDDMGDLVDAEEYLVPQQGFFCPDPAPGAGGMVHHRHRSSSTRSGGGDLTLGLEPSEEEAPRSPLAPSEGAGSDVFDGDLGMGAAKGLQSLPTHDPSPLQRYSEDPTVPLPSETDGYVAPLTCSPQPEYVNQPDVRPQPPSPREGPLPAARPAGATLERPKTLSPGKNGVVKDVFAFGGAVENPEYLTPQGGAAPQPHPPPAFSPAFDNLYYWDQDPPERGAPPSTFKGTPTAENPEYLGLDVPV
Chain of Receptor tyrosine-protein kinase erbB-2 (Homo sapiens, UniProt P04626, D769H) (P04626 23-1255 D769H limits assumed): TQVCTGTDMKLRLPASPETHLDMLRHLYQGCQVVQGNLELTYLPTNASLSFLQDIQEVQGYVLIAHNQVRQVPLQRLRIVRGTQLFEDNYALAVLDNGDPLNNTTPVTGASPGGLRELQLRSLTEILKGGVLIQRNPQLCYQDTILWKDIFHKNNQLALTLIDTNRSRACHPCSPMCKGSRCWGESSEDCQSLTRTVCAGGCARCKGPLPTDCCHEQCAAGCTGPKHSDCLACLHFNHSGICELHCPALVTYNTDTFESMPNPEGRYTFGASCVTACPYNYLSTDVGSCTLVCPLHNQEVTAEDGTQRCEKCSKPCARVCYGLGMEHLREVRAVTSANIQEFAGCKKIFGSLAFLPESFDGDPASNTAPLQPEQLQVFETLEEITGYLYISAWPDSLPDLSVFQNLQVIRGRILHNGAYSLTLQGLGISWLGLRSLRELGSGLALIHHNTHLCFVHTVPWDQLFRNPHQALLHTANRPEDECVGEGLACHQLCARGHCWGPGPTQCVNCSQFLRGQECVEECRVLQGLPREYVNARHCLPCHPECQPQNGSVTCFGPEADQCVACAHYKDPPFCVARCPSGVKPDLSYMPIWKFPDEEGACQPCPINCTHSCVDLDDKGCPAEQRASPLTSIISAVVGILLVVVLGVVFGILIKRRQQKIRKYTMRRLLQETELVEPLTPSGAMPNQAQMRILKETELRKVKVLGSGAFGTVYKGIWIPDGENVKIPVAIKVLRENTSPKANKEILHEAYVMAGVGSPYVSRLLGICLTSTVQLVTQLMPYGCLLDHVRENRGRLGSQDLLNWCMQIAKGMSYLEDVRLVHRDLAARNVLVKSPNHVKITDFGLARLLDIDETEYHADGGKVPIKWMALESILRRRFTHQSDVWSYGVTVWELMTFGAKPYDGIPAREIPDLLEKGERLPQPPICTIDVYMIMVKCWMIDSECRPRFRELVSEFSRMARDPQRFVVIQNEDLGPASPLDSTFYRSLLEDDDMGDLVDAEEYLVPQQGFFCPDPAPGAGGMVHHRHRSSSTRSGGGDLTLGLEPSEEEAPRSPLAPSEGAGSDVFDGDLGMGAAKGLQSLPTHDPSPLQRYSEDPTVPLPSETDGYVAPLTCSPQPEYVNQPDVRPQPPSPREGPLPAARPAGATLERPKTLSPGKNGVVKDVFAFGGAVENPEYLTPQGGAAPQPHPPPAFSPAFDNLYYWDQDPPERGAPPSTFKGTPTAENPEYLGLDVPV

As for `C=CC(=O)NC1CCN(c2ncc3ncnc(Nc4ccc(Oc5ccc6c(c5)ncn6C)c(C)c4)c3n2)CC1` [ZONGERTINIB], the IC50 (commonly the concentration that inhibits the measured activity by half) in series [1] was determined as 13 nM.

For the molecule `CCOc1cc2ncc(C#N)c(Nc3ccc(Oc4ccn5ncnc5c4)c(C)c3)c2cc1NC(=O)/C=C/CN(C)C`, the results for the IC50 in series [1] and in series [2] were 2.21 nM and 7.04 nM, respectively.

Consider `COc1ccc2c(Nc3ccc(Oc4cccc5ccc(C)nc45)c(C)c3)ncnc2c1`, for which the IC50 stood at 239 nM in [1] and 166 nM in series [2].

Take `CN1CCN(CCCOc2ccc3ncnc(Nc4ccc(OCc5cccc(F)c5)c(Cl)c4)c3c2)CC1`: the IC50 in series [3] came to 80 nM; in [4], 12 nM. Besides, the half-life (in general, the time in which the quantity being followed falls by half) in series [5] was found to be 0.957 h.

With `Cc1cc(Nc2ncnc3ccc(NC(=O)/C=C/[C@H]4CCCN4C)cc23)ccc1Oc1cc2ncnn2cn1`, the IC50 amounted to 1.4 nM in [1] and 1.19 nM in [2].

Turning to `C=CC(=O)N1CCN(c2ncc3ncnc(Nc4ccc(Oc5ccc6c(c5)ncn6C)c(C)c4)c3n2)CC1`, the IC50 in series [6] is 16 nM; in [7], 16 nM; in series [8], over 5 nM.

As for `C=CC(=O)N1CCN(C(=O)Oc2cc3c(Nc4cccc(Cl)c4F)ncnc3cc2OC)[C@H](C)C1`, half-maximal inhibition in series [1] (IC50) was put at 152 nM.

In turn, `CCOc1cc2ncc(C#N)c(Nc3ccc(OCc4ccccn4)c(Cl)c3)c2cc1NC(=O)/C=C/[C@H]1CCCN1C` [PYROTINIB] yielded an IC50 in [1] of 38 nM.

Regarding `Cc1ccc2cccc(Oc3ccc(Nc4ncnc5ccc(NC6CCCC6)cc45)cc3C)c2n1`, the figures for the IC50 in [1], in series [2] and in series [9] were 8 nM, 155 nM and 238 nM, respectively.

For the molecule `C=CC(=O)N1CCN(c2ncc3ncnc(Nc4ccc(Oc5ccn6ncnc6c5)c(C)c4)c3n2)CC1`, the concentration for half-maximal inhibition (IC50) worked out at 5.8 nM in [6], 5.8 nM in [7] and 2200 nM in [8].

Regarding `Cc1cc(Nc2ncnc3cccc(OC4CCN(C)CC4)c23)ccc1Oc1ccn2ncnc2c1`, half-maximal inhibition in series [10] (IC50) required 18 nM.

With `COCCOc1ccc2ncnc(Nc3ccc(Oc4cccc5ccc(C)nc45)c(C)c3)c2c1`, the figures for the IC50 in series [1] and in [2] were 42 nM and 143 nM, respectively.

`Cc1cc(Nc2ncnc3cccc(O[C@H]4CCN(C)CC4(F)F)c23)ccc1Oc1ccn2ncnc2c1` showed an IC50 in series [10] of 5.8 nM.

Turning to `C=CC(=O)N1CCC[C@@H](n2nc(C(=O)Nc3ccc(CC(=O)N(C)C)c(C)c3C)c3c(N)ncnc32)C1`, the IC50 amounted to 16.4 nM in series [1] and 65 nM in [2].

In [1], `C=CC(=O)Nc1cccc(-c2c(-c3ccc(N4CCN(C)CC4)cc3)[nH]c3ncnc(Nc4ccc(OCc5ccccn5)c(Cl)c4)c23)c1` came in with an IC50 of about 2.3 nM.

Turning to `C=CC(=O)N1CCN(c2ncc3ncnc(Nc4ccc(Oc5ccccc5)c(C)c4)c3n2)CC1`, the IC50 came to 12 nM in series [6], 12 nM in series [7] and 200 nM in [8].

As for `Cc1ccc2cccc(Oc3ccc(Nc4ncnc5ccc(NC(=O)C6CCCC6)cc45)cc3C)c2n1`, the values for the IC50 in series [1] and in series [2] were 314 nM and 2010 nM, respectively.

As for `O=C(Nc1ccc2ncnc(Nc3ccc(OCc4cccc(F)c4)c(Cl)c3)c2c1)c1ccc(CNCCO)cc1`, the IC50 stood at 12 nM in series [1] and 200 nM in [3]. Also, the clearance (as a rule, a measure of how efficiently the substance is removed, as volume per time) in [11] was at most 9.6 mL/min/kg.

Take `CCOCCOc1cc2ncnc(Nc3ccc(OCc4ccccn4)c(Cl)c3)c2cc1NC(=O)/C=C/CN(C)C`: the 50% inhibitory concentration (IC50) in series [2] was determined as 1.01 nM; in series [12], 60.6 nM.

Regarding `COCCOc1cc2ncnc(Nc3ccc(Oc4cccc5ccc(C)nc45)c(C)c3)c2cc1OCCOC`, the IC50 in series [1] and in [2] was 12 nM in each case.

The molecule `C=CC(=O)N1CCC(Oc2cc3c(Nc4ccc(Cl)c(Cl)c4F)ncnc3cc2OC)CC1` [POZIOTINIB] gave an IC50 in series [1] of 1.69 nM.

`CCOc1cc2ncnc(Nc3ccc(Oc4ccn5ncnc5c4)c(C)c3)c2cc1NC(=O)/C=C/[C@H]1CCCN1C`: the IC50 in [1] stood at 1.67 nM; in series [2] it was 1.36 nM; in [13], 1.12 nM; in series [3], 2.13 nM.

With `COc1cc2ncnc(Nc3ccc(Oc4cccc5ccc(C)nc45)c(C)c3)c2cc1OC`, the figures for the IC50 in [1] and in series [2] were 14 nM and 11 nM, respectively.

`C=CC(=O)Nc1cccc(-c2c[nH]c3ncnc(Nc4ccc(OCc5ccccn5)c(Cl)c4)c23)c1`: half-maximal inhibition in [7] (IC50) required 17 nM.

With `Cc1cc(Nc2ncnc3ccc(NC(=O)/C=C/[C@H]4CCCN4C)cc23)ccc1Oc1ccn2ncnc2c1`, in series [14], the half-life is over 116 h. In addition, the figures for the IC50 in series [15] and in series [16] were 2.65 nM and 2.4 nM, respectively.

Turning to `CCOc1cc2ncnc(Nc3ccc(Oc4ccn5ncnc5c4)c(C)c3)c2cc1NC(=O)/C(F)=C/[C@H]1CCCN1C` [SPH-5030], the IC50 in series [1] is 3.51 nM; in series [2] it was 8.13 nM; in [13] it was 1.09 nM; in series [3], 2.01 nM; in series [18] it was under 1 nM; in [19] it was under 1 nM. For the same molecule, the half-life in series [17] is 9.24 h.

With `COc1cc2c(Nc3ccc(Oc4ccn5ncnc5c4)c(C)c3)ncnc2cc1OCCCN1CCN(CCCCCCCNc2ccc3c(c2)C(=O)N(C2CCC(=O)NC2=O)C3=O)CC1` (centres undefined), the IC50 in series [1] is 0.04 nM.

Consider `Cc1cc(Nc2ncnc3ccc(NC4=NC(C)(C)CO4)cc23)ccc1Oc1ccn2ncnc2c1` [TUCATINIB], for which the IC50 was 8 nM in [1] and over 500 nM in [2].

As to `C=CC(=O)N1CCC[C@@H](n2nc(-c3ccc(OCc4cccc(C)n4)cc3)c3c(N)ncnc32)C1`, the IC50 in [1] stood at 16.4 nM; in series [2], 0.12 nM.

For `C=CC(=O)N1C[C@@H]2C[C@H]1CN2C(=O)Oc1cc2c(Nc3ccc(Cl)c(Cl)c3F)ncnc2cc1OC`, in series [1], the IC50 is 6.07 nM.

Values taken from ChEMBL document CHEMBL6083185, “Unraveling the future: Innovative design strategies and emerging challenges in HER2-targeted tyrosine kinase inhibitors for cancer therapy” (Eur J Med Chem, 2024).
